In patent US20040138094A1, “Treatment regimes” (priority 2003, published 2004):

Columns and labels:
[1] = tested on: ABCA1 mRNA in THP1 macrophages; assay: ABCA1 mRNA expression by RTQ-PCR in THP1 macrophages; format: cell-based, human; conditions: for Induction of ABCA1 mRNA expression (in words): THP1 macrophages, 100 nM, FIG. 1A
Procedure: (§1) THP1 human monocyte cells (ATCC TID-202), in 6-well plates at a density of 1×10^6 cells/well in RPMI 1640 medium containing 10% FBS, were differentiated into macrophages by treatment with PMA (100 ng/ml) for 5 days. 1BR3N human skin fibroblasts (ECACC 90020508) and FHS74 human intestinal cells (ATCC CCL-241) were plated in 6 well plates at a density of 1×10^6 cells/well in the recommended maintenance media. Cells were treated with vehicle (0.1% DMSO) or test compound for 48 h prior to harvesting. Total RNA was generated using the Qiagen RNeasy Mini Kit and DNase treated according to the manufacturer's protocol (Ambion). ABCA1 expression was analysed using RTQ-PCR on an ABI PRISM 7700 sequence detection system (P. E. Applied Biosystems). Primer/probe sequences used were as follows: ABCA1 forward primer 5′-[…]-3′, (Seq ID No:1) reverse primer 5′-[…]-3′, (Seq ID No:2) probe 5′FAM-[…]-TAMRA3′ (Seq ID No:3) Expression data were normalised to 18S as described by the vendor.

[2] = tested on: ABCA1 mRNA in 1BR3N human skin fibroblasts; assay: ABCA1 mRNA expression by RTQ-PCR in 1BR3N human skin fibroblasts; format: cell-based
Procedure: as §1

[3] = tested on: ABCA1 mRNA in FHS74 human intestinal cells; assay: ABCA1 mRNA expression by RTQ-PCR in FHS74 human intestinal cells; format: cell-based
Procedure: as §1

THP1 macrophages = assay: ApoA1-specific cholesterol efflux from THP1 macrophages; format: cell-based, human
Procedure: (§2) Following differentiation to macrophages, THP1 cells were washed in serum-free medium and incubated in 5% FBS medium containing 1 μCi/mL of [^3H]-cholesterol (New England Nuclear) and 0.2% fatty acid-free BSA (faf BSA) for a further 24 h. The cells were washed in serum-free medium and then incubated for 24 h in serum-free medium supplemented with 1.5% faf BSA±test compound or vehicle (0.1% DMSO). The equilibration medium was removed and the cells washed twice in serum-free medium. Serum-free DMEM containing compound±purified human apolipoprotein (apo) Al ([…], Athens Research & Technology) was added. The cells were maintained for 24 h before medium and cell extract samples were generated. Scintillation counting was performed to determine the percentage cellular cholesterol efflux±apoAl. 1BR3N human skin fibroblast cells were plated in 6-well plates at a density of 1×10^6 cells/well in DMEM medium containing 10% FBS and cultured for 24 h. Efflux studies were performed as in the THP1 macrophages except that the cells were maintained for 48 h before scintillation counting was performed.

[4] = tested on: 1BR3N human skin fibroblasts; assay: ApoA1-specific cholesterol efflux from 1BR3N human skin fibroblasts; format: cell-based
Procedure: as §2

ABCA1 in macrophages = conditions: 50 μM, reported in ref 16; cited from earlier work
macrophages = conditions: 50 μM, reported in ref 16; cited from earlier work
[5] = THP1 macrophages, 100 nM, FIG. 1B

Structure (SMILES): Cc1cc(SCc2sc(-c3ccc(C(F)(F)F)cc3)nc2C)ccc1OCC(=O)O [GW501516, 2-(2-methyl-4[({4-methyl-2[4-(trifluoromethyl)phenyl]-1,3-thiazol-5-yl}methyl)sulfanyl]phenoxy}acetic acid]
- ABCA1 mRNA (% increase) ([1]; THP1 macrophage, 48 h, (GW-vehicle)/vehicle × 100, mean ± S.D., triplicate): 460 ± 150%
- Induction of ABCA1 mRNA expression (in words) [1]: strong induction
- ABCA1 mRNA (% increase) ([2]; 1BR3N fibroblast, 48 h, (GW-vehicle)/vehicle × 100, mean ± S.D., triplicate): 240 ± 25%
- Increase in ABCA1 expression ([2]; 1BR3N human skin fibroblasts): 3.4 fold
- Increase in ABCA1 expression ([3]; FHS74 human intestinal cells): 2.1 fold
- ABCA1 mRNA (% increase) ([3]; FHS74 intestinal, 48 h, (GW-vehicle)/vehicle × 100, mean ± S.D., triplicate): 115 ± 30%
- Cholesterol efflux (% increase) (THP1 macrophages; THP1 macrophage, (GW-vehicle)/vehicle × 100, mean ± S.D., triplicate): 100 ± 15%
- Increase in cholesterol efflux to apoA1 (THP1 macrophages; [5]): 2 fold
- Cholesterol efflux (% increase) ([4]; 1BR3N fibroblast, (GW-vehicle)/vehicle × 100, mean ± S.D., triplicate): 110 ± 10%
- Increase in apoA1-specific cholesterol efflux ([4]; 1BR3N human skin fibroblasts): 2 fold

Structure (SMILES): COC(=O)c1ccccc1N[C@@H](Cc1ccc(OCCc2nc(-c3ccccc3)oc2C)cc1)C(=O)O [GW7845, reference compound]
- Induction of ABCA1 mRNA expression (in words) [1]: also induced ABCA1 expression
- Effect on cholesterol efflux (in words) (THP1 macrophages; [5]): ineffective

Structure (SMILES): Cc1cccc(Nc2cc(Cl)nc(SCC(=O)O)n2)c1C [Wy14,643]
- ABCA1 expression (in words) (ABCA1 in macrophages): induces
- Cholesterol efflux from macrophages (in words) (macrophages): induces

Structure (SMILES): CC(C)(Sc1ccc(CCN(CCCCC2CCCCC2)C(=O)NC2CCCCC2)cc1)C(=O)O [GW7647, reference compound]
- Induction of ABCA1 mRNA expression (in words) [1]: only a weak effect
- Effect on cholesterol efflux (in words) (THP1 macrophages; [5]): ineffective
